Calls of active or inactive are those of the source. How the calls were made is not given here.
System: rodent lifetime carcinogenesis bioassay, tumor incidence TD50
Assay: chronic cancer bioassays in animals – CPDB, compiled studies (AID 1745844)

CN(C)CCOC(C)(c1ccccc1)c1ccccn1 (stereo unspecified)
TD50 (mouse, strain B6C3F1, females, in feed, site: liver, lesion: hepatocellular adenoma, dosed 104 weeks, study length 104 weeks): 633 mg/kg/day
TD50 (mouse, strain B6C3F1, females, in feed, site: lung, lesion: alveolar/bronchiolar adenoma, dosed 65 weeks, study length 65 weeks): 78.7 mg/kg/day
TD50 (mouse, strain B6C3F1, females, in feed, site: lung, lesion: several types, types named in the paper, dosed 104 weeks, study length 104 weeks): 170 mg/kg/day
TD50 (mouse, strain B6C3F1, females, in feed, site: thyroid gland, lesion: follicular-cell adenoma, dosed 104 weeks, study length 104 weeks): 740 mg/kg/day
TD50 (mouse, strain B6C3F1, females, in feed, site: thyroid gland, lesion: follicular-cell tumor, dosed 104 weeks, study length 104 weeks): 672 mg/kg/day
TD50 (mouse, strain B6C3F1, males, in feed, site: liver, lesion: hepatocellular adenoma, dosed 65 weeks, study length 65 weeks): 77.8 mg/kg/day
TD50 (mouse, strain B6C3F1, males, in feed, site: liver, lesion: hepatocellular adenoma, dosed 104 weeks, study length 104 weeks): 144 mg/kg/day
TD50 (mouse, strain B6C3F1, males, in feed, site: liver, lesion: several types, types named in the paper, dosed 104 weeks, study length 104 weeks): 125 mg/kg/day
TD50 (mouse, strain B6C3F1, males, in feed, site: lung, lesion: alveolar/bronchiolar adenoma, dosed 65 weeks, study length 65 weeks): 3180 mg/kg/day
TD50 (mouse, strain B6C3F1, males, in feed, site: thyroid gland, lesion: follicular-cell adenoma, dosed 104 weeks, study length 104 weeks): 273 mg/kg/day
carcinogen call (rat, strain Fischer 344, females, in feed, site: liver, lesion: several types, types named in the paper, dosed 104 weeks, study length 104 weeks): negative (inactive)
TD50 (rat, strain Fischer 344, males, in feed, site: all sites, lesion: mononuclear-cell leukemia, dosed 104 weeks, study length 104 weeks): 271 mg/kg/day
TD50 (rat, strain Fischer 344, males, in feed, site: liver, lesion: hepatocellular adenoma, dosed 65 weeks, study length 65 weeks): 469 mg/kg/day
TD50 (rat, strain Fischer 344, males, in feed, site: liver, lesion: hepatocellular adenoma, dosed 104 weeks, study length 104 weeks): 3270 mg/kg/day
TD50 (rat, strain Fischer 344, males, in feed, site: liver, lesion: hepatocellular carcinoma, dosed 104 weeks, study length 104 weeks): 3270 mg/kg/day
TD50 (rat, strain Fischer 344, males, in feed, site: liver, lesion: several types, types named in the paper, dosed 104 weeks, study length 104 weeks): 1610 mg/kg/day

Nc1ccc(-c2ccc(F)cc2)cc1
TD50 (mouse, strain CBA, females, by gavage, site: liver, lesion: hepatoma, dosed 26 weeks, study length 114 weeks): 1.09 mg/kg/day
TD50 (mouse, strain CBA, males, by gavage, site: liver, lesion: hepatoma, dosed 26 weeks, study length 104 weeks): 1.19 mg/kg/day
TD50 (mouse, strain CBA, males, by gavage, site: liver, lesion: several types, types named in the paper, dosed 26 weeks, study length 104 weeks): 1.19 mg/kg/day

CCCCN(CCCC)C(=S)[S-].CCCCN(CCCC)C(=S)[S-].[Ni+2]
TD50 (mouse, strain B6AKF1, females, oral dosing, site: any site (literature study), lesion: several types, types named in the paper, dosed 76 weeks, study length 76 weeks): 0.185 mg/kg/day (inactive)
carcinogen call (mouse, strain B6AKF1, females, oral dosing, site: liver, lesion: hepatoma, dosed 76 weeks, study length 76 weeks): negative (inactive)
TD50 (mouse, strain B6AKF1, females, oral dosing, site: lung, lesion: adenoma, dosed 76 weeks, study length 76 weeks): 0.0869 mg/kg/day (inactive)
carcinogen call (mouse, strain B6AKF1, males, oral dosing, site: any site (literature study), lesion: several types, types named in the paper, dosed 76 weeks, study length 76 weeks): negative (inactive)
carcinogen call (mouse, strain B6AKF1, males, oral dosing, site: liver, lesion: hepatoma, dosed 76 weeks, study length 76 weeks): negative (inactive)
TD50 (mouse, strain B6AKF1, males, oral dosing, site: lung, lesion: adenoma, dosed 76 weeks, study length 76 weeks): 0.153 mg/kg/day (inactive)
TD50 (mouse, strain B6C3F1, females, oral dosing, site: any site (literature study), lesion: several types, types named in the paper, dosed 76 weeks, study length 76 weeks): 0.174 mg/kg/day (inactive)
carcinogen call (mouse, strain B6C3F1, females, oral dosing, site: liver, lesion: hepatoma, dosed 76 weeks, study length 76 weeks): negative (inactive)
TD50 (mouse, strain B6C3F1, females, oral dosing, site: lung, lesion: adenoma, dosed 76 weeks, study length 76 weeks): 0.174 mg/kg/day (inactive)
TD50 (mouse, strain B6C3F1, males, oral dosing, site: any site (literature study), lesion: several types, types named in the paper, dosed 76 weeks, study length 76 weeks): 0.0283 mg/kg/day (inactive)
TD50 (mouse, strain B6C3F1, males, oral dosing, site: liver, lesion: hepatoma, dosed 76 weeks, study length 76 weeks): 0.0509 mg/kg/day (inactive)
TD50 (mouse, strain B6C3F1, males, oral dosing, site: lung, lesion: adenoma, dosed 76 weeks, study length 76 weeks): 0.163 mg/kg/day (inactive)

From PubChem BioAssay AID1745844 (Carcinogenic Potency Database (CPDB), 2022)
